Measurements from patent publication US9120791B2, “Indolizine compounds, a process for their preparation and pharmaceutical compositions containing them” (LES LABORATOIRES SERVIER, priority 2012, dated 2015).

Tests used:
[1] = test system: RS4;11 leukaemia tumour line; experiment: In vitro cytotoxicity (Microculture Tetrazolium Assay, 48 hours); format: cell-based; conditions: Homo sapiens, RS4;11 cells, 48 hours exposure, MTT, concentration that inhibits cell viability by 50%, read-out: IC50 (nM) MTT RS4
Experimental: The cytotoxicity studies were carried out on the RS4;11 leukaemia tumour line.
The cells are distributed onto microplates and exposed to the test compounds for 48 hours.

[2] = test system: cleaved form of caspase 3; experiment: Quantification of the cleaved form of caspase 3 in vivo (MSD ELISA, RS4;11 xenograft); design: species or system mice (SCID strain); conditions: oral treatment, RS4;11 xenograft in SCID mice
Experimental: The ability of the compounds of the invention to activate caspase 3 is evaluated in a xenograft model of RS4;11 leukaemia cells.
1×10^7 RS4;11 cells are grafted subcutaneously into immunosuppressed mice (SCID strain). 25 to 30 days after the graft, the animals are treated orally with the various compounds. After treatment, the tumour masses are recovered and lysed, and the cleaved (activated) form of caspase 3 is quantified in the tumour lysates.
The quantification is carried out using the “Meso Scale Discovery (MSD) ELISA platform” test, which specifically assays the cleaved form of caspase 3. It is expressed in the form of an activation factor corresponding to the ratio between the quantity of cleaved caspase 3 in the treated mice divided by the quantity of cleaved caspase 3 in the control mice.

Bcl-2 protein = Bcl-2 protein (Homo sapiens (Human), UniProt P10415); experiment: Inhibition of Bcl-2 by the fluorescence polarisation technique; format: binding; conditions: fluorescence polarisation test; concentration that inhibits fluorescence polarisation by 50%; read-out: IC50 (nM) Bcl-2 FP
Experimental: The fluorescence polarisation tests were carried out on microplates (384 wells). […] After incubation for 2 hours, the fluorescence polarisation is measured.

Chain of Bcl-2 protein (P10415 whole entry): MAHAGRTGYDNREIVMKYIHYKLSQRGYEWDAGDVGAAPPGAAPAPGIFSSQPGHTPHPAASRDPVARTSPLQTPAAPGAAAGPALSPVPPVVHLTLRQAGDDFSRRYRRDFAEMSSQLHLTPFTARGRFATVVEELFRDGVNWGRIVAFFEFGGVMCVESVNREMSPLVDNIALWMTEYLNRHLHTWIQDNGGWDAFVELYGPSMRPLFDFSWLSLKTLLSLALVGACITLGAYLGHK

IC50 (Bcl-2 protein) [nM]	Structure (SMILES)	IC50 [1] [nM]	Activation factor (versus control), cleaved caspase 3 MSD test in the tumours ([2]; 25 mg/kg)	Activation factor (versus control), cleaved caspase 3 MSD test in the tumours ([2]; 50 mg/kg)
31	Cl.O=C(c1cc(-c2cc(Cl)ccc2C(=O)N2Cc3ccccc3C[C@H]2CN2CCOCC2)n2c1COCC2)N(c1ccccc1)c1ccc(O)cc1 [Example 78, 6-{5-Chloro-2-[((3S)-3-(4-morpholinylmethyl)-3,4-dihydro-2(1H)-isoquinolinyl)carbonyl]phenyl}-N-(4-hydroxyphenyl)-N-phenyl-3,4-dihydro-1H-pyrrolo[2,1-c][1,4]oxazine-8-carboxamide hydrochloride]	101	10.4 (25 mg/kg)	–
16	Cl.O=C(c1cc(-c2cc3c(cc2C(=O)N2Cc4ccccc4C[C@H]2CN2CCOCC2)OCO3)n2c1CCCC2)N(c1ccc(O)cc1)c1cccc(F)c1 [Example 122, N-(3-Fluorophenyl)-N-(4-hydroxyphenyl)-3-(6-{[(3S)-3-(morpholin-4-ylmethyl)-3,4-dihydroisoquinolin-2(1H)-yl]carbonyl}-1,3-benzdioxol-5-yl)-5,6,7,8-tetrahydroindolizine-1-carboxamide hydrochloride]	43.5	17.4 (25 mg/kg)	–
6	Cl.Cn1cc(N(C(=O)c2cc(-c3cc(Cl)ccc3C(=O)N3Cc4ccccc4C[C@H]3CN3CCOCC3)n3c2CCCC3)c2ccc(O)cc2)cn1 [Example 135, 3-(5-Chloro-2-{[(3S)-3-(morpholin-4-ylmethyl)-3,4-dihydroisoquinolin-2(1H)-yl]carbonyl}phenyl)-N-(4-hydroxyphenyl)-N-(1-methyl-1H-pyrazol-4-yl)-5,6,7,8-tetrahydroindolizine-1-carboxamide hydrochloride]	37.4	–	60 (50 mg/kg)
27	CCCCN(C(=O)c1cc(-c2cc3c(cc2C(=O)N2Cc4ccccc4C[C@H]2CN2CCOCC2)OCO3)n2c1CCCC2)c1ccc(O)cc1.Cl [Example 87, N-Butyl-N-(4-hydroxyphenyl)-3-{6-[((3S)-3-(4-morpholinylmethyl)-3,4-dihydro-2(1H)-isoquinolinyl)carbonyl]-1,3-benzodioxol-5-yl}-5,6,7,8-tetrahydro-1-indolizine carboxamide hydrochloride]	121	–	18.3 (50 mg/kg)
